This passage reports T/C results from PubChem BioAssay AID180 (DTP/NCI, 2004).

Values joined by “and” are separate entries in the source; they are usually repeats but may differ in a detail not shown here. Identical values can stand only once.

By T/C is commonly meant the ratio of treated to control.

The assay deals with BDF1 mice, Adenocarcinoma 755 s.c., tumor weight T/C. Briefly: NCI In Vivo Anticancer Drug Screen. Data for tumor model Adenocarcinoma 755 (subcutaneous) in B6D2F1 (BDF1) mice. The note with it: endpoint: mean tumor weight, higher = larger tumour. The essentials:
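Transplantable tumor implanted; mice dosed with compound or vehicle; survival or tumor size recorded; ratio of treated to vehicle control reported.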

The mark [1] stands for this setting: dose: 30.0 mg/kg/injection, schedule: Q01DX011 (ip), vehicle: carboxymethylcellulose (CMC).
The mark [2] stands for this setting: dose: 60.0 mg/kg/injection, schedule: Q01DX011 (ip), vehicle: carboxymethylcellulose (CMC).
The mark [3] stands for this setting: dose: 120.0 mg/kg/injection, schedule: Q01DX011 (ip), vehicle: carboxymethylcellulose (CMC).
Setting [4] is: dose: 240.0 mg/kg/injection, schedule: Q01DX011 (ip), vehicle: carboxymethylcellulose (CMC).
The mark [5] stands for this setting: dose: 100.0 mg/kg/injection, schedule: Q01DX011 (ip), vehicle: saline.
Where [6] appears, read: dose: 75.0 mg/kg/injection, schedule: Q01DX011 (ip), vehicle: saline.
Where [7] appears, read: dose: 25.0 mg/kg/injection, schedule: Q01DX011 (ip), vehicle: saline.
The mark [8] stands for this setting: dose: 6.25 mg/kg/injection, schedule: Q01DX011 (ip), vehicle: saline.
Setting [9] is: dose: 12.5 mg/kg/injection, schedule: Q01DX011 (ip), vehicle: saline.
The mark [10] stands for this setting: dose: 50.0 mg/kg/injection, schedule: Q01DX011 (ip), vehicle: carboxymethylcellulose (CMC).
Setting [11] is: dose: 100.0 mg/kg/injection, schedule: Q01DX011 (ip), vehicle: carboxymethylcellulose (CMC).
[12] abbreviates: dose: 2.5 mg/kg/injection, schedule: Q01DX011 (ip), vehicle: carboxymethylcellulose (CMC).

Turning to `Cn1cnc(=N)c2[nH]cnc21`, the T/C was 97 % of control under setting [1], 93 % of control under setting [2], 73 % of control under setting [3] and 93 % of control under setting [4].

Consider `O=C(Nc1ncnc2nc[nH]c12)C(Cl)Cl`, for which, under setting [5], the T/C is 77 % of control.

For `CC(Sc1nc(N)nc2nc[nH]c12)C(=O)O` (centres undefined), the T/C by setting is: (dose: 37.5 mg/kg/injection, schedule: Q01DX011 (ip), vehicle: saline) 81 % of control; under setting [6], 74 % of control; (dose: 150.0 mg/kg/injection, schedule: Q01DX011 (ip), vehicle: saline) 45 % of control; (dose: 300.0 mg/kg/injection, schedule: Q01DX011 (ip), vehicle: saline) 12 % of control.

Turning to `c1cc[nH]c1`, the T/C (dose: 40.0 mg/kg/injection, schedule: Q01DX011 (ip), vehicle: carboxymethylcellulose (CMC)) is 101 % of control; the T/C (dose: 80.0 mg/kg/injection, schedule: Q01DX011 (ip), vehicle: carboxymethylcellulose (CMC)) was 68 % of control; the T/C (dose: 160.0 mg/kg/injection, schedule: Q01DX011 (ip), vehicle: carboxymethylcellulose (CMC)) is 113 % of control.

For the compound `Cc1cc(Nc2ccccc2Br)nc(N)n1`, the T/C reads like this: (dose: 15.0 mg/kg/injection, schedule: Q01DX011 (ip), vehicle: methylcellulose (MC)) 65 % of control; (dose: 31.0 mg/kg/injection, schedule: Q01DX011 (ip), vehicle: methylcellulose (MC)) 69 % of control; (dose: 62.0 mg/kg/injection, schedule: Q01DX011 (ip), vehicle: methylcellulose (MC)) 112 % of control; (dose: 125.0 mg/kg/injection, schedule: Q01DX011 (ip), vehicle: methylcellulose (MC)) 78 % of control; (dose: 250.0 mg/kg/injection, schedule: Q01DX011 (ip), vehicle: methylcellulose (MC)) 76 % of control.

For `O=C(O)C1CCCN1c1ncnc2nc[nH]c12` (centres undefined), the T/C is 115 % of control under setting [7] and 104 % of control under setting [6].

In the case of `CCCCCSc1nc(N)nc2nc[nH]c12`, the T/C was 114 % of control (dose: 0.04 mg/kg/injection, schedule: Q01DX011 (ip), vehicle: alkali diluted with saline); 119 % of control (dose: 0.08 mg/kg/injection, schedule: Q01DX011 (ip), vehicle: alkali diluted with saline); 95 % of control (dose: 0.16 mg/kg/injection, schedule: Q01DX011 (ip), vehicle: alkali diluted with saline); 80 % of control (dose: 0.32 mg/kg/injection, schedule: Q01DX011 (ip), vehicle: alkali diluted with saline); 112 % of control (dose: 0.63 mg/kg/injection, schedule: Q01DX011 (ip), vehicle: alkali diluted with saline); 97 % of control (dose: 1.25 mg/kg/injection, schedule: Q01DX011 (ip), vehicle: alkali diluted with saline). The T/C reads like this: (dose: 1.5 mg/kg/injection, schedule: Q01DX011 (ip), vehicle: saline) 79 % of control; (dose: 2.5 mg/kg/injection, schedule: Q01DX011 (ip), vehicle: alkali diluted with saline) 85 % of control; (dose: 3.1 mg/kg/injection, schedule: Q01DX011 (ip), vehicle: saline) 100 % of control; (dose: 5.0 mg/kg/injection, schedule: Q01DX011 (ip), vehicle: alkali diluted with saline) 106 % of control; under setting [8], 83 % of control; (dose: 10.0 mg/kg/injection, schedule: Q01DX011 (ip), vehicle: alkali diluted with saline) 82 % of control. For the same compound, the T/C runs as follows: under setting [9], 43 % of control; under setting [7], 47 % of control; (dose: 50.0 mg/kg/injection, schedule: Q01DX011 (ip), vehicle: saline) 7 % of control; under setting [5], 3 % of control.

As for `C/C(=N\NC(=O)c1ccncc1)c1ccc(F)cc1`, the T/C (dose: 30.0 mg/kg/injection, schedule: Q01DX011 (ip), vehicle: methylcellulose (MC)) is 95 % of control.

For the compound `CCCCCCn1cnc2c(=S)nc[nH]c21`, the T/C by setting is: (dose: 63.0 mg/kg/injection, schedule: Q01DX011 (ip), vehicle: carboxymethylcellulose (CMC)) 50 % of control; (dose: 500.0 mg/kg/injection, schedule: Q01DX011 (ip), vehicle: carboxymethylcellulose (CMC)) 5 % of control and 13 % of control.

`Nc1ncnc2c1ncn2C1CCCCC1`: the T/C was 75 % of control (dose: 34.0 mg/kg/injection, schedule: Q01DX011 (oral), vehicle: carboxymethylcellulose (CMC)); 120 % of control (dose: 68.0 mg/kg/injection, schedule: Q01DX011 (oral), vehicle: carboxymethylcellulose (CMC)); 78 % of control (dose: 136.0 mg/kg/injection, schedule: Q01DX011 (oral), vehicle: carboxymethylcellulose (CMC)); 106 % of control (dose: 272.0 mg/kg/injection, schedule: Q01DX011 (oral), vehicle: carboxymethylcellulose (CMC)).

Take `c1nc(N2CC2)c2ncn(C3CCCCC3)c2n1`: the T/C is, setting by setting: (dose: 12.5 mg/kg/injection, schedule: Q01DX011 (ip), vehicle: carboxymethylcellulose (CMC)) 36 % of control; under setting [10], 94 % of control.

Consider `O=C1Cc2ccccc2C(=O)N1`, for which the T/C (dose: 7.5 mg/kg/injection, schedule: Q01DX011 (ip), vehicle: carboxymethylcellulose (CMC)) is 79 % of control; the T/C (dose: 15.0 mg/kg/injection, schedule: Q01DX011 (ip), vehicle: carboxymethylcellulose (CMC)) was 104 % of control; the T/C under setting [1] was 107 % of control; the T/C under setting [2] was 56 % of control.

As to `CCOC=Nc1c(N)ncnc1Cl`, the T/C runs as follows: under setting [1], 67 % of control; under setting [10], 107 % of control; under setting [2], 34 % of control; (dose: 62.5 mg/kg/injection, schedule: Q01DX011 (ip), vehicle: olive oil, sesame oil, peanut oil) 62 % of control; under setting [11], 60 % of control; under setting [3], 10 % of control. In addition, the T/C was 65 % of control (dose: 125.0 mg/kg/injection, schedule: Q01DX011 (ip), vehicle: olive oil, sesame oil, peanut oil); 38 % of control (dose: 200.0 mg/kg/injection, schedule: Q01DX011 (ip), vehicle: carboxymethylcellulose (CMC)); 2 % of control under setting [4]; 43 % of control (dose: 250.0 mg/kg/injection, schedule: Q01DX011 (ip), vehicle: olive oil, sesame oil, peanut oil); 11 % of control (dose: 400.0 mg/kg/injection, schedule: Q01DX011 (ip), vehicle: carboxymethylcellulose (CMC)); 23 % of control (dose: 500.0 mg/kg/injection, schedule: Q01DX011 (ip), vehicle: olive oil, sesame oil, peanut oil).

For the compound `NC1=CC(=O)c2cccnc2C1=O`, the T/C was 111 % of control (dose: 6.5 mg/kg/injection, schedule: Q01DX011 (ip), vehicle: water); 87 % of control (dose: 10.0 mg/kg/injection, schedule: Q01DX011 (ip), vehicle: water); 69 % of control (dose: 15.0 mg/kg/injection, schedule: Q01DX011 (ip), vehicle: water).

Take `CNc1ncnc2c1cnn2C1CCCO1` (centres undefined): the T/C was 71 % of control (dose: 2.3 mg/kg/injection, schedule: Q01DX011 (ip), vehicle: methylcellulose (MC)); 33 % of control (dose: 4.6 mg/kg/injection, schedule: Q01DX011 (ip), vehicle: methylcellulose (MC)); 14 % of control (dose: 9.3 mg/kg/injection, schedule: Q01DX011 (ip), vehicle: methylcellulose (MC)).

Take `CCCNc1ncnc2c1cnn2C`: the T/C is, setting by setting: (dose: 3.12 mg/kg/injection, schedule: Q01DX011 (ip), vehicle: methylcellulose (MC)) 84 % of control; (dose: 3.12 mg/kg/injection, schedule: Q01DX011 (ip), vehicle: saline) 101 % of control; (dose: 6.25 mg/kg/injection, schedule: Q01DX011 (ip), vehicle: methylcellulose (MC)) 80 % of control; under setting [8], 86 % of control; (dose: 12.5 mg/kg/injection, schedule: Q01DX011 (ip), vehicle: methylcellulose (MC)) 32 % of control; under setting [9], 19 % of control. Besides, the T/C under setting [7] was 8 % of control.

Regarding `N[C@@H](Cc1ccc(N(CCCl)CCCl)cc1)C(=O)O`, the T/C is 66 % of control (dose: 0.31 mg/kg/injection, schedule: Q01DX011 (ip), vehicle: carboxymethylcellulose (CMC)); 101 % of control (dose: 0.62 mg/kg/injection, schedule: Q01DX011 (ip), vehicle: carboxymethylcellulose (CMC)); 59 % of control (dose: 1.25 mg/kg/injection, schedule: Q01DX011 (ip), vehicle: carboxymethylcellulose (CMC)); 29 % of control under setting [12].

Turning to `CCSc1ncnc2nc[nH]c12`, the T/C reads like this: under setting [12], 40 % of control; under setting [11], 1 % of control.
